The record followed here is ChEMBL document CHEMBL3792360, “Antibacterial activity of Mannich bases derived from 2-naphthols, aromatic aldehydes and secondary aliphatic amines” (2016).

Holding throughout (assay type): functional
In experiment [1] the test system is Escherichia coli. Briefly: Antibacterial activity against Escherichia coli ATCC 35218 after 16 to 20 hrs by broth microdilution method.
Experiment [2] concerns Escherichia coli. Briefly: Antibacterial activity against Escherichia coli ATCC 25922 after 16 to 20 hrs by broth microdilution method.
The next experiment deals with Enterococcus faecalis. Briefly: Antibacterial activity against Enterococcus faecalis ATCC 25912 after 16 to 20 hrs by broth microdilution method. Background: In broth dilution the organism is exposed to a series of concentrations in liquid medium.
The next experiment concerns Pseudomonas aeruginosa. The experiment in a line: Antibacterial activity against Pseudomonas aeruginosa CIP 82118 after 16 to 20 hrs by broth microdilution method.
The subject of experiment [3] is Staphylococcus aureus. The experiment in a line: Antibacterial activity against Staphylococcus aureus […] after 16 to 20 hrs by broth microdilution method.
In the next experiment the test system is Enterobacter cloacae. The experiment in a line: Antibacterial activity against Enterobacter cloacae CIP 103475 after 16 to 20 hrs by broth microdilution method.
The test system of another experiment is Citrobacter freundii. Briefly: Antibacterial activity against Citrobacter freundii CIP 5732 after 16 to 20 hrs by broth microdilution method.
Another experiment relates to Klebsiella pneumoniae. The experiment in a line: Antibacterial activity against Klebsiella pneumoniae CIP 53153 after 16 to 20 hrs by broth microdilution method.
In a further experiment the test system is Proteus vulgaris. The experiment in a line: Antibacterial activity against Proteus vulgaris CIP 104989 after 16 to 20 hrs by broth microdilution method.
The subject of experiment [4] is Staphylococcus aureus. Briefly: Antibacterial activity against methicillin-resistant Staphylococcus aureus ATCC 43300 after 16 to 20 hrs by broth microdilution method.

Structures are written as SMILES. Converted amounts (≈) assume the structure as drawn.

By MIC is commonly meant the least concentration at which growth counts as inhibited. Lower therefore signals inhibition by little substance. On to `Cc1cc(C)cc(C(c2c(O)ccc3ccccc23)N2CCC(C)CC2)c1` (stereo not given), for which the minimal inhibitory concentration (MIC) in the experiment with Escherichia coli [1], in the experiment on Escherichia coli [2], in the experiment with Enterococcus faecalis, against Pseudomonas aeruginosa, in the experiment on Staphylococcus aureus [3] and against Enterobacter cloacae was above 512 µg/mL in each case. Besides, the MIC with Citrobacter freundii, against Klebsiella pneumoniae, in the experiment on Proteus vulgaris and against Staphylococcus aureus [4] was above 512 µg/mL each time.

On to `CC1CCN(C(c2ccc(F)cc2)c2c(O)ccc3ccccc23)CC1` (stereo not given), for which the MIC in the experiment with Escherichia coli [1], against Escherichia coli [2], in the experiment on Enterococcus faecalis, against Pseudomonas aeruginosa, with Staphylococcus aureus [3] and in the experiment on Enterobacter cloacae was above 512 µg/mL in each case. The MIC in the experiment with Citrobacter freundii, in the experiment with Klebsiella pneumoniae, in the experiment on Proteus vulgaris and against Staphylococcus aureus [4] was above 512 µg/mL in each case.

For the molecule `CC1CCN(C(c2ccc(Br)s2)c2c(O)ccc3ccccc23)CC1` (stereo not given), the MIC was above 512 µg/mL against Escherichia coli [1]; above 512 µg/mL against Escherichia coli [2]; 16 µg/mL (≈ 38.4 µM) in the experiment on Enterococcus faecalis; above 512 µg/mL in the experiment with Pseudomonas aeruginosa; 8 µg/mL (≈ 19.2 µM) in the experiment with Staphylococcus aureus [3]; above 512 µg/mL against Enterobacter cloacae. Further, the MIC against Citrobacter freundii is above 512 µg/mL; with Klebsiella pneumoniae, above 512 µg/mL; against Proteus vulgaris it was above 512 µg/mL; against Staphylococcus aureus [4], 16 µg/mL (≈ 38.4 µM).

For the molecule `Oc1ccc2ccccc2c1C(c1cccc2ccccc12)N1CCCCC1` (stereo not given), the MIC in the experiment with Escherichia coli [1], with Escherichia coli [2], in the experiment on Enterococcus faecalis, against Pseudomonas aeruginosa, in the experiment on Staphylococcus aureus [3] and in the experiment on Enterobacter cloacae was above 512 µg/mL throughout. For the same molecule, the MIC in the experiment on Citrobacter freundii, against Klebsiella pneumoniae, in the experiment with Proteus vulgaris and in the experiment on Staphylococcus aureus [4] was above 512 µg/mL each time.

Regarding `CC1CCN(C(c2cccc3ccccc23)c2c(O)ccc3ccccc23)CC1` (stereo not given), the minimum inhibitory concentration (MIC) in the experiment with Escherichia coli [1], in the experiment on Escherichia coli [2], in the experiment with Enterococcus faecalis, with Pseudomonas aeruginosa, in the experiment on Staphylococcus aureus [3] and against Enterobacter cloacae was above 512 µg/mL in each case. For the same molecule, the MIC in the experiment on Citrobacter freundii, with Klebsiella pneumoniae, against Proteus vulgaris and in the experiment with Staphylococcus aureus [4] was above 512 µg/mL each time.

For `CC1CCN(C(c2ccccc2)c2c(O)ccc3ccccc23)CC1` (stereo not given), the MIC in the experiment with Escherichia coli [1], with Escherichia coli [2], in the experiment on Enterococcus faecalis, against Pseudomonas aeruginosa, against Staphylococcus aureus [3] and against Enterobacter cloacae was above 512 µg/mL each time. Besides, the minimal inhibitory concentration (MIC) in the experiment on Citrobacter freundii, in the experiment with Klebsiella pneumoniae, in the experiment with Proteus vulgaris and in the experiment on Staphylococcus aureus [4] was above 512 µg/mL each time.

Take `Oc1ccc2ccccc2c1C(c1ccc(F)cc1)N1CCCCC1` (stereo not given): the MIC against Escherichia coli [1] was above 512 µg/mL; against Escherichia coli [2], above 512 µg/mL; against Enterococcus faecalis, above 512 µg/mL; against Pseudomonas aeruginosa, above 512 µg/mL; in the experiment with Staphylococcus aureus [3], 8 µg/mL (≈ 23.9 µM); against Enterobacter cloacae, above 512 µg/mL. The MIC against Citrobacter freundii, with Klebsiella pneumoniae, with Proteus vulgaris and with Staphylococcus aureus [4] was above 512 µg/mL each time.

Regarding `Oc1ccc2ccccc2c1C(c1ccccc1)N1CCCCC1` (stereo not given), the MIC is above 512 µg/mL against Escherichia coli [1]; above 512 µg/mL with Escherichia coli [2]; above 512 µg/mL in the experiment on Enterococcus faecalis; above 512 µg/mL against Pseudomonas aeruginosa; 8 µg/mL (≈ 25.2 µM) in the experiment on Staphylococcus aureus [3]; above 512 µg/mL against Enterobacter cloacae. Further, the MIC with Citrobacter freundii, with Klebsiella pneumoniae, against Proteus vulgaris and in the experiment on Staphylococcus aureus [4] was above 512 µg/mL throughout.

On to `Oc1ccc2ccccc2c1C(c1cccs1)n1nnc2ccccc21` (stereo not given), for which the MIC was above 512 µg/mL with Escherichia coli [1]; above 512 µg/mL in the experiment on Escherichia coli [2]; above 512 µg/mL in the experiment on Enterococcus faecalis; above 512 µg/mL against Pseudomonas aeruginosa; 16 µg/mL (≈ 44.8 µM) against Staphylococcus aureus [3]; above 512 µg/mL against Enterobacter cloacae. The MIC is above 512 µg/mL in the experiment with Citrobacter freundii, above 512 µg/mL with Klebsiella pneumoniae, above 512 µg/mL in the experiment on Proteus vulgaris and 16 µg/mL (≈ 44.8 µM) against Staphylococcus aureus [4].

With `Cc1cc(C)cc(C(c2c(O)ccc3ccccc23)N2CCCCC2)c1` (stereo not given), the MIC is above 512 µg/mL against Escherichia coli [1]; above 512 µg/mL in the experiment on Escherichia coli [2]; above 512 µg/mL in the experiment with Enterococcus faecalis; above 512 µg/mL in the experiment with Pseudomonas aeruginosa; 4 µg/mL (≈ 11.6 µM) in the experiment on Staphylococcus aureus [3]; above 512 µg/mL with Enterobacter cloacae. The MIC in the experiment with Citrobacter freundii, in the experiment on Klebsiella pneumoniae, against Proteus vulgaris and against Staphylococcus aureus [4] was above 512 µg/mL in each case.

For the molecule `CC1(C)S[C@@H]2[C@H](NC(=O)[C@H](N)c3ccc(O)cc3)C(=O)N2[C@H]1C(=O)O` [AMOXICILLIN], the MIC against Escherichia coli [1] is 2 µg/mL (≈ 5.47 µM); in the experiment with Escherichia coli [2], 2 µg/mL (≈ 5.47 µM); against Enterococcus faecalis, 0.25 µg/mL (≈ 0.684 µM); against Pseudomonas aeruginosa it was above 512 µg/mL; against Staphylococcus aureus [3], 0.06 µg/mL (≈ 0.164 µM); in the experiment on Enterobacter cloacae, 256 µg/mL (≈ 701 µM). The MIC was found to be 125 µg/mL (≈ 342 µM) in the experiment with Citrobacter freundii, 256 µg/mL (≈ 701 µM) in the experiment on Klebsiella pneumoniae, 256 µg/mL (≈ 701 µM) against Proteus vulgaris and 8 µg/mL (≈ 21.9 µM) against Staphylococcus aureus [4].
